The target in assay [1] is Poly [ADP-ribose] polymerase 1 (Homo sapiens, UniProt P09874). Briefly: Inhibition of recombinant human full length N-terminal GST- tagged PARP1 expressed in baculovirus infected sf9 cells using Colorimetric HRP as substrate incubated for 30 mins by UV/Vis spectrophotometer analysis.
Assay [2] relates to MCF7. The experiment in a line: Cytotoxicity against human MCF7 cells assessed as increase in extra cellular LDH at 2.5 to 5 uM incubated for 30 hrs by spectrophotometric based LDH assay. The class given is functional, cell-based.
The subject of assay [3] is MCF7. Briefly: Cytotoxicity against human MCF7 cells at 2.5 to 5 uM incubated for 30 hrs by MTT assay. The class given is functional, cell-based.
Assay [4] deals with MCF7. Briefly: Inhibition of cell migration in human MCF7 cells incubated for 30 hrs by scratch wound assay. It counts as functional, cell-based.
For assay [5], the system named is MCF7. Briefly: Inhibition of cell migration in human MCF7 cells at 2.5 to 5 uM incubated for 30 hrs by scratch wound assay relative to control. It counts as functional.
Assay [6] deals with MCF7. The experiment in a line: Antiproliferative activity against human MCF7 cells incubated for 30 hrs by hematoxylin staining based BrdU incorporation assay. The class given is functional, cell-based. (In general: Incorporation of labelled thymidine or its analogues reports DNA synthesis.)
Assay [7] deals with MCF7. Briefly: Antiproliferative activity against human MCF7 cells assessed as increase in PARP1-89 protein expression at 5 uM incubated for 30 hrs by Western blot analysis. The class given is functional, cell-based. (Immunoblotting shows a protein as a band on a membrane.)

Activity calls are given as the source filed them. The calls are words filed in the database; no cut-off is given here.

By IC50 is commonly meant the concentration that inhibits the measured activity by half.

Sequence of Poly [ADP-ribose] polymerase 1 (P09874 whole entry): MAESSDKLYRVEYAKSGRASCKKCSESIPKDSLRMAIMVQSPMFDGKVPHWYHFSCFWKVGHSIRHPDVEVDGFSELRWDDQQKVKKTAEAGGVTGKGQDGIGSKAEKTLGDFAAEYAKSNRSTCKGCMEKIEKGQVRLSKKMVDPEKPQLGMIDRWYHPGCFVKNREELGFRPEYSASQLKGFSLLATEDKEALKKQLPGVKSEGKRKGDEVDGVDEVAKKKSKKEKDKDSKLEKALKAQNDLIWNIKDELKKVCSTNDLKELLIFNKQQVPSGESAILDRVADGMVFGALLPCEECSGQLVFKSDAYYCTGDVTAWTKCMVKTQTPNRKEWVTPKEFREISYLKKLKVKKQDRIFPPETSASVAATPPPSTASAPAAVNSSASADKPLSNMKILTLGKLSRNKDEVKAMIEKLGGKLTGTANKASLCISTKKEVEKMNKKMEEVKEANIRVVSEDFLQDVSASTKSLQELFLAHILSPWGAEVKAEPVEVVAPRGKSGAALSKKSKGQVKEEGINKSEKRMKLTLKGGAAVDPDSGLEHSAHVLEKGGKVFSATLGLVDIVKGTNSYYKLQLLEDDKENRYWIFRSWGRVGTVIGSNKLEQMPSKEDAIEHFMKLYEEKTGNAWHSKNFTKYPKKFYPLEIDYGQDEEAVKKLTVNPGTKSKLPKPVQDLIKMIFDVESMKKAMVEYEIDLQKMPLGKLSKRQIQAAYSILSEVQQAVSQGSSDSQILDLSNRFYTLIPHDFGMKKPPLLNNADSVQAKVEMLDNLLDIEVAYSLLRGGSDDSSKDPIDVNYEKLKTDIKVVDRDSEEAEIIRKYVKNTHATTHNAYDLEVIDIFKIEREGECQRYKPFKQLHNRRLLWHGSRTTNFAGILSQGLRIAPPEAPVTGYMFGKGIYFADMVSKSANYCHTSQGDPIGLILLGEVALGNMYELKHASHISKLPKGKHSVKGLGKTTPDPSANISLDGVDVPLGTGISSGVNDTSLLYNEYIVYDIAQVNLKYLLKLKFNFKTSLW

As to `C=CCSc1nnc(-c2cc3ccccc3n2CC=C)n1-c1ccccc1`, the IC50 in assay [1] came out at 350 nM. Moreover, the outcome in the assay with MCF7 [2], in the assay with MCF7 [3] and in the assay with MCF7 [7] was Active. In the assay with MCF7 [4], the inhibition entry was “Dose-dependent effect”. In addition, the “inhibition (INH)” value in the assay with MCF7 [5] is on record as 30 - 40%. Also, in the assay with MCF7 [6], the Activity result is “Dose-dependent effect”.

In the case of `S=c1[nH]nc(CSc2nnc(-c3cc4ccccc4[nH]3)n2-c2ccccc2)n1-c1ccccc1`, in assay [1], the IC50 came to 8080 nM. The result with MCF7 [2] was Active.

With `O=C(c1cc(Cc2n[nH]c(=O)c3ccccc23)ccc1F)N1CCN(C(=O)C2CC2)CC1`, in the assay on MCF7 [3], the result was Active.

Turning to `CC(O)CSc1nnc(-c2cc3ccccc3[nH]2)n1-c1ccccc1` (configuration not stated), in assay [1], the IC50 came out at 330 nM. Moreover, the result with MCF7 [2] was Active.

On to `S=c1[nH]nc(-c2cc3ccccc3[nH]2)n1-c1ccccc1`, for which the IC50 in assay [1] came out at 2100 nM. In addition, the result in the assay with MCF7 [2], with MCF7 [3] and in the assay on MCF7 [7] was Active. The inhibition entry in the assay with MCF7 [4] was “Dose-dependent effect”. For the same compound, the “inhibition (INH)” value in the assay on MCF7 [5] is given as 30 - 40%. Also, the Activity entry with MCF7 [6] was “Dose-dependent effect”.

For `C=CCSc1nnc(-c2cc3ccccc3[nH]2)n1-c1ccccc1`, the IC50 in assay [1] was found to be 2400 nM. Besides, the outcome with MCF7 [2], with MCF7 [3] and with MCF7 [7] was Active. Moreover, the inhibition result in the assay on MCF7 [4] was “Dose-dependent effect”. The “inhibition (INH)” value with MCF7 [5] is 30 - 40%. Further, the Activity result in the assay with MCF7 [6] was “Dose-dependent effect”.

Take `CC(=O)OC[C@H]1O[C@@H](Sc2nnc(-c3cc4ccccc4[nH]3)n2-c2ccccc2)[C@H](OC(C)=O)[C@@H](OC(C)=O)[C@@H]1OC(C)=O`: the IC50 in assay [1] is 2220 nM. Further, the result in the assay with MCF7 [2] and in the assay on MCF7 [3] was Active. For the same compound, the inhibition entry in the assay on MCF7 [5] was “inactive”. For the same compound, the Activity entry with MCF7 [6] was “Dose-dependent effect”. In addition, in the assay on MCF7 [7], the result was inactive.
